From publication PMC5218480 (PLoS ONE, 2017)

System: MV-4-11 cells
Assay: Gene expression microarray analysis (Affymetrix PrimeView) and GSEA
Assay type: cell-based, human
Parameters: RFU PODN (11730768_x_at) / Fold change /veh PODN (11730768_x_at) / RFU LINC00158 (11744669_a_at) / Fold change /veh LINC00158 (11744669_a_at) / RFU DUSP10 (11751237_a_at) / Fold change /veh DUSP10 (11751237_a_at) / RFU ID3 (11757404_x_at) / Fold change /veh ID3 (11757404_x_at) / RFU PLEKHG5 (11737974_s_at) / Fold change /veh PLEKHG5 (11737974_s_at) / RFU LRRC4B (11730491_at) / Fold change /veh LRRC4B (11730491_at) / RFU GIMAP4 (11747438_a_at) / Fold change /veh GIMAP4 (11747438_a_at) / RFU KRT8 (11758183_x_at) / Fold change /veh KRT8 (11758183_x_at) / RFU CNN1 (11734310_a_at) / Fold change /veh CNN1 (11734310_a_at) / RFU VPS37D (11726825_at) / Fold change /veh VPS37D (11726825_at) / RFU C10orf10 (11716522_x_at) / Fold change /veh C10orf10 (11716522_x_at) / RFU KIR2DL2 /// KIR2DL4 /// KIR2DL5A /// KIR2DL5B /// KIR2DS1 /// KIR2DS2 /// KIR2DS3 /// KIR2DS4 /// KIR3DL3 /// KIR3DL3 /// KIR3DS1 (11738374_at) / Fold change /veh KIR2DL2 /// KIR2DL4 /// KIR2DL5A /// KIR2DL5B /// KIR2DS1 /// KIR2DS2 /// KIR2DS3 /// KIR2DS4 /// KIR3DL3 /// KIR3DL3 /// KIR3DS1 (11738374_at) / RFU C1QL1 (11718748_at) / Fold change /veh C1QL1 (11718748_at) / RFU TMPRSS4 (11747572_a_at) / Fold change /veh TMPRSS4 (11747572_a_at) / RFU HAMP (11756126_x_at) / Fold change /veh HAMP (11756126_x_at) / RFU RNFT2 (11725882_a_at) / Fold change /veh RNFT2 (11725882_a_at) / RFU NR4A2 (11747474_a_at) / Fold change /veh NR4A2 (11747474_a_at) / RFU ABCC12 (11746883_a_at) / Fold change /veh ABCC12 (11746883_a_at) / RFU TMEM136 (11760407_x_at) / Fold change /veh TMEM136 (11760407_x_at) / RFU CLDN22 /// WWC2 (11732394_at) / Fold change /veh CLDN22 /// WWC2 (11732394_at) / RFU HLA-DPB1 (11760878_x_at) / Fold change /veh HLA-DPB1 (11760878_x_at) / RFU SPINT1 (11716480_a_at) / Fold change /veh SPINT1 (11716480_a_at) / RFU GAP43 (11754022_s_at) / Fold change /veh GAP43 (11754022_s_at) / RFU A4GNT (11735810_at) / Fold change /veh A4GNT (11735810_at) / RFU PRB3 (11715151_x_at) / Fold change /veh PRB3 (11715151_x_at) / RFU TUBB4B (11761932_at) / Fold change /veh TUBB4B (11761932_at) / RFU CAPN14 (11732068_a_at) / Fold change /veh CAPN14 (11732068_a_at) / RFU TMCC2 (11721928_a_at) / Fold change /veh TMCC2 (11721928_a_at) / RFU IRGQ (11745062_a_at) / Fold change /veh IRGQ (11745062_a_at) / RFU FAM174B (11720279_a_at) / Fold change /veh FAM174B (11720279_a_at) / RFU TMPRSS4 (11748680_a_at) / Fold change /veh TMPRSS4 (11748680_a_at) / RFU FAM212B (11763350_a_at) / Fold change /veh FAM212B (11763350_a_at) / RFU PLEKHG5 (11743358_a_at) / Fold change /veh PLEKHG5 (11743358_a_at) / RFU ZSCAN30 (11745921_a_at) / Fold change /veh ZSCAN30 (11745921_a_at) / RFU CMKLR1 (11741424_a_at) / Fold change /veh CMKLR1 (11741424_a_at) / RFU LOC101060620 /// MAPK8IP1 (11723275_at) / Fold change /veh LOC101060620 /// MAPK8IP1 (11723275_at) / RFU SPTSSB (11747773_x_at) / Fold change /veh SPTSSB (11747773_x_at) / RFU PRSS12 (11739890_at) / Fold change /veh PRSS12 (11739890_at) / RFU BIN1 (11741810_x_at) / Fold change /veh BIN1 (11741810_x_at) / RFU WNT11 (11732464_a_at) / Fold change /veh WNT11 (11732464_a_at) / RFU C10orf10 (11716521_a_at) / Fold change /veh C10orf10 (11716521_a_at) / RFU C5orf56 (11738089_at) / Fold change /veh C5orf56 (11738089_at) / RFU CYB561 (11721691_x_at) / Fold change /veh CYB561 (11721691_x_at) / RFU ANKRD19P (11752326_a_at) / Fold change /veh ANKRD19P (11752326_a_at) / RFU OR2T12 /// OR2T33 /// OR2T8 (11738714_s_at) / Fold change /veh OR2T12 /// OR2T33 /// OR2T8 (11738714_s_at) / RFU VCAN (11748164_a_at) / Fold change /veh VCAN (11748164_a_at) / RFU JSRP1 (11732532_at) / Fold change /veh JSRP1 (11732532_at) / RFU KRTAP10-11 (11738290_x_at) / Fold change /veh KRTAP10-11 (11738290_x_at) / RFU MYO3A (11730013_a_at) / Fold change /veh MYO3A (11730013_a_at) / RFU EBF3 (11725865_a_at) / Fold change /veh EBF3 (11725865_a_at) / RFU CAMK2N1 (11719241_x_at) / Fold change /veh CAMK2N1 (11719241_x_at) / RFU C5orf56 (11738088_a_at) / Fold change /veh C5orf56 (11738088_a_at) / RFU OLFML3 (11715873_a_at) / Fold change /veh OLFML3 (11715873_a_at) / RFU LOC100653217 /// NTM (11731650_a_at) / Fold change /veh LOC100653217 /// NTM (11731650_a_at) / RFU MAPK11 (11762145_a_at) / Fold change /veh MAPK11 (11762145_a_at) / RFU FIZ1 (11724087_x_at) / Fold change /veh FIZ1 (11724087_x_at) / RFU OASL (11726364_x_at) / Fold change /veh OASL (11726364_x_at) / RFU SOX15 (11748057_x_at) / Fold change /veh SOX15 (11748057_x_at) / RFU CD79A (11719716_a_at) / Fold change /veh CD79A (11719716_a_at) / RFU HIST1H1D (11736915_at) / Fold change /veh HIST1H1D (11736915_at) / RFU CASKIN2 (11723855_a_at) / Fold change /veh CASKIN2 (11723855_a_at) / RFU LOC730098 (11760151_x_at) / Fold change /veh LOC730098 (11760151_x_at) / RFU OR4N2 (11742367_at) / Fold change /veh OR4N2 (11742367_at) / RFU PRRT2 (11749266_a_at) / Fold change /veh PRRT2 (11749266_a_at) / RFU SNX32 (11753110_a_at) / Fold change /veh SNX32 (11753110_a_at) / RFU CDHR5 (11726645_a_at) / Fold change /veh CDHR5 (11726645_a_at) / RFU RCAN1 (11760418_a_at) / Fold change /veh RCAN1 (11760418_a_at) / RFU FAM167A (11723789_a_at) / Fold change /veh FAM167A (11723789_a_at) / RFU FAM26E (11764081_at) / Fold change /veh FAM26E (11764081_at) / RFU ISYNA1 (11749810_s_at) / Fold change /veh ISYNA1 (11749810_s_at) / RFU ACY1 (11761880_at) / Fold change /veh ACY1 (11761880_at) / RFU 11764098_at / Fold change /veh 11764098_at / RFU SAMD14 (11745864_x_at) / Fold change /veh SAMD14 (11745864_x_at) / RFU NPB (11741838_a_at) / Fold change /veh NPB (11741838_a_at) / RFU TMPRSS6 (11731388_a_at) / Fold change /veh TMPRSS6 (11731388_a_at) / RFU KRTAP10-2 (11738614_at) / Fold change /veh KRTAP10-2 (11738614_at) / RFU ARHGAP8 /// PRR5-ARHGAP8 (11727945_x_at) / Fold change /veh ARHGAP8 /// PRR5-ARHGAP8 (11727945_x_at) / RFU KRTAP5-7 /// NADSYN1 (11734609_at) / Fold change /veh KRTAP5-7 /// NADSYN1 (11734609_at) / RFU RASL12 (11751679_a_at) / Fold change /veh RASL12 (11751679_a_at) / RFU CDKN2B (11736163_a_at) / Fold change /veh CDKN2B (11736163_a_at) / RFU PRF1 (11729649_at) / Fold change /veh PRF1 (11729649_at) / RFU, ZNF638 /// ZNF638-IT1 / Fold change vs veh, ZNF638 /// ZNF638-IT1 / RFU, PANK3 / Fold change vs veh, PANK3 / RFU, SH3YL1 / Fold change vs veh, SH3YL1 / RFU, ZEB2 / Fold change vs veh, ZEB2 / RFU, NRIP1 / Fold change vs veh, NRIP1 / RFU, PTTG1IP / Fold change vs veh, PTTG1IP / RFU, CAPN2 / Fold change vs veh, CAPN2 / RFU, MED14 / Fold change vs veh, MED14 / RFU, SNORA58 / Fold change vs veh, SNORA58 / RFU, C1orf63 / Fold change vs veh, C1orf63 / RFU, LRRFIP1 / Fold change vs veh, LRRFIP1 / RFU, NDUFAF7 / Fold change vs veh, NDUFAF7 / RFU, SLC12A2 / Fold change vs veh, SLC12A2 / RFU, IBTK / Fold change vs veh, IBTK / RFU, ESF1 / Fold change vs veh, ESF1 / Fold change vs veh, TMEM50B / RFU, TAOK1 / Fold change vs veh, TAOK1 / RFU, ACBD3 / Fold change vs veh, ACBD3 / RFU, TMA16 / Fold change vs veh, TMA16 / RFU, RWDD3 / Fold change vs veh, RWDD3 / RFU, BCAT1 / Fold change vs veh, BCAT1 / RFU, EDEM3 / Fold change vs veh, EDEM3 / RFU, TMEM33 / Fold change vs veh, TMEM33 / RFU, WDR75 / Fold change vs veh, WDR75 / RFU, AHCTF1 / Fold change vs veh, AHCTF1 / RFU, TFRC / Fold change vs veh, TFRC / RFU, ZDHHC17 / Fold change vs veh, ZDHHC17 / RFU, NOM1 / Fold change vs veh, NOM1 / RFU, ARL8B / Fold change vs veh, ARL8B / RFU, ZBTB11 / Fold change vs veh, ZBTB11 / RFU, TAMM41 / Fold change vs veh, TAMM41 / RFU, KIAA1704 /// LOC100996395 / Fold change vs veh, KIAA1704 /// LOC100996395 / RFU, ING1 / Fold change vs veh, ING1 / RFU, TRMT61B / Fold change vs veh, TRMT61B / RFU, FUBP3 / Fold change vs veh, FUBP3 / RFU, TP53 / Fold change vs veh, TP53 / RFU, TNKS2 / Fold change vs veh, TNKS2 / RFU, ZFP14 / Fold change vs veh, ZFP14 / RFU, ACTR2 / Fold change vs veh, ACTR2 / RFU, PPP3R1 / Fold change vs veh, PPP3R1 / RFU, PIK3R1 / Fold change vs veh, PIK3R1 / RFU, HNRNPA1 / Fold change vs veh, HNRNPA1 / RFU, RNF170 / Fold change vs veh, RNF170 / RFU, ZNF28 / Fold change vs veh, ZNF28 / RFU, RNGTT / Fold change vs veh, RNGTT / RFU, OGT / Fold change vs veh, OGT / RFU, BRD1 / Fold change vs veh, BRD1 / RFU, MARS / Fold change vs veh, MARS / RFU, ZNF655 / Fold change vs veh, ZNF655 / RFU, FAHD1 / Fold change vs veh, FAHD1 / RFU, BDP1 / Fold change vs veh, BDP1 / RFU, LRRCC1 / Fold change vs veh, LRRCC1 / RFU, ARID1A / Fold change vs veh, ARID1A / RFU, ZNF146 / Fold change vs veh, ZNF146 / RFU, ZNF330 / Fold change vs veh, ZNF330 / RFU, GPN3 / Fold change vs veh, GPN3 / RFU, C9orf123 / Fold change vs veh, C9orf123 / RFU, N4BP2L2 / Fold change vs veh, N4BP2L2 / RFU, ARFIP1 / Fold change vs veh, ARFIP1 / RFU, FAM179B / Fold change vs veh, FAM179B / RFU, BCL10 / Fold change vs veh, BCL10 / RFU, UHRF1BP1L / Fold change vs veh, UHRF1BP1L / RFU, BET1 / Fold change vs veh, BET1 / RFU, CNOT2 / Fold change vs veh, CNOT2 / RFU, ZNF268 / Fold change vs veh, ZNF268 / Fold change vs veh, ZNF507 / RFU, DGCR2 / Fold change vs veh, DGCR2 / RFU, WDSUB1 / Fold change vs veh, WDSUB1 / Fold change vs veh, HSP90B1 /// MIR3652 / RFU, ADSS / Fold change vs veh, ADSS / RFU, GK / Fold change vs veh, GK / RFU, ZNF148 / Fold change vs veh, ZNF148 / RFU, TAF9 / Fold change vs veh, TAF9 / RFU, SLC1A5 / Fold change vs veh, SLC1A5 / RFU, SLMO2 / Fold change vs veh, SLMO2 / RFU, ABCC4 / Fold change vs veh, ABCC4 / RFU, LOC101060439 /// RAP1B / Fold change vs veh, LOC101060439 /// RAP1B / RFU, RFX7 / Fold change vs veh, RFX7 / RFU, GTPBP10 / Fold change vs veh, GTPBP10 / RFU, CNEP1R1 / Fold change vs veh, CNEP1R1 / RFU, BIVM-ERCC5 /// ERCC5 / Fold change vs veh, BIVM-ERCC5 /// ERCC5 / RFU, ILF3 / Fold change vs veh, ILF3 / RFU 11762660_at / Fold change /veh 11762660_at / RFU VCAN (11757783_s_at) / Fold change /veh VCAN (11757783_s_at) / RFU DDX43 (11728927_at) / Fold change /veh DDX43 (11728927_at) / RFU KRT8 (11758188_x_at) / Fold change /veh KRT8 (11758188_x_at) / RFU NKD1 (11759106_at) / Fold change /veh NKD1 (11759106_at) / RFU SRD5A1 (11742802_a_at) / Fold change /veh SRD5A1 (11742802_a_at) / RFU TPSAB1 /// TPSB2 (11721975_s_at) / Fold change /veh TPSAB1 /// TPSB2 (11721975_s_at) / RFU GSTM3 (11746129_a_at) / Fold change /veh GSTM3 (11746129_a_at) / RFU IL23R (11737362_x_at) / Fold change /veh IL23R (11737362_x_at) / RFU TMEM51 (11727254_a_at) / Fold change /veh TMEM51 (11727254_a_at) / RFU PIWIL2 (11732686_x_at) / Fold change /veh PIWIL2 (11732686_x_at) / RFU ORM1 (11744905_x_at) / Fold change /veh ORM1 (11744905_x_at) / RFU CCDC152 (11743942_at) / Fold change /veh CCDC152 (11743942_at) / RFU ECM1 (11717891_a_at) / Fold change /veh ECM1 (11717891_a_at) / RFU IL23R (11748794_a_at) / Fold change /veh IL23R (11748794_a_at) / RFU TNFAIP8L3 (11732012_x_at) / Fold change /veh TNFAIP8L3 (11732012_x_at) / RFU MBOAT4 (11741988_at) / Fold change /veh MBOAT4 (11741988_at) / RFU 11764193_at / Fold change /veh 11764193_at / RFU TMEM53 (11763286_at) / Fold change /veh TMEM53 (11763286_at) / RFU MAGEB2 (11727129_at) / Fold change /veh MAGEB2 (11727129_at) / RFU TMEM200A (11744735_a_at) / Fold change /veh TMEM200A (11744735_a_at) / RFU CCDC152 (11751479_a_at) / Fold change /veh CCDC152 (11751479_a_at) / RFU FAM211A (11726209_a_at) / Fold change /veh FAM211A (11726209_a_at) / RFU RGS16 (11746705_a_at) / Fold change /veh RGS16 (11746705_a_at) / RFU VCAN (11755009_s_at) / Fold change /veh VCAN (11755009_s_at) / RFU RHOB (11743442_s_at) / Fold change /veh RHOB (11743442_s_at) / RFU RGS16 (11720943_a_at) / Fold change /veh RGS16 (11720943_a_at) / RFU RGS16 (11720944_at) / Fold change /veh RGS16 (11720944_at) / RFU, VPS4B / Fold change vs veh, VPS4B / RFU, CREB1 / Fold change vs veh, CREB1 / RFU, DNAJC13 / Fold change vs veh, DNAJC13 / RFU, GNAQ / Fold change vs veh, GNAQ / RFU, CDK5R1 / Fold change vs veh, CDK5R1 / RFU, ZRANB3 / Fold change vs veh, ZRANB3 / RFU, CUL4A / Fold change vs veh, CUL4A / RFU, CCNY / Fold change vs veh, CCNY / RFU, UFL1 / Fold change vs veh, UFL1 / RFU, COG3 / Fold change vs veh, COG3 / RFU, DIAPH2 / Fold change vs veh, DIAPH2 / RFU, SKA2 / Fold change vs veh, SKA2 / RFU, AFF3 / Fold change vs veh, AFF3 / RFU, LMF1 / Fold change vs veh, LMF1 / RFU, IPO11 / Fold change vs veh, IPO11 / RFU, DFFB / Fold change vs veh, DFFB / RFU, FOXP1 / Fold change vs veh, FOXP1 / RFU, CARD8 / Fold change vs veh, CARD8 / RFU, STRN3 / Fold change vs veh, STRN3 / RFU, ADK / Fold change vs veh, ADK / RFU, RASSF2 / Fold change vs veh, RASSF2 / RFU, WIPF1 / Fold change vs veh, WIPF1 / RFU, LARP1B / Fold change vs veh, LARP1B / RFU, RASA1 / Fold change vs veh, RASA1 / RFU, RB1 / Fold change vs veh, RB1 / RFU, PPFIA1 / Fold change vs veh, PPFIA1 / RFU, MAT2A / Fold change vs veh, MAT2A / RFU, CCT5 / Fold change vs veh, CCT5 / RFU, WDR92 / Fold change vs veh, WDR92 / RFU, CUX1 / Fold change vs veh, CUX1 / RFU, TTC7A / Fold change vs veh, TTC7A / RFU, TMEM135 / Fold change vs veh, TMEM135 / RFU, DEPTOR / Fold change vs veh, DEPTOR / RFU, CPM / Fold change vs veh, CPM / RFU, DNAJB6 / Fold change vs veh, DNAJB6 / RFU, CACNA2D3 / Fold change vs veh, CACNA2D3 / RFU, DTX4 / Fold change vs veh, DTX4 / RFU, TFCP2 / Fold change vs veh, TFCP2 / RFU, GMCL1 /// GMCL1P1 / Fold change vs veh, GMCL1 /// GMCL1P1 / RFU, AEBP2 / Fold change vs veh, AEBP2 / RFU, SNHG1 /// SNORD22 /// SNORD25 /// SNORD26 /// SNORD27 /// SNORD28 /// SNORD29 /// SNORD31 / Fold change vs veh, SNHG1 /// SNORD22 /// SNORD25 /// SNORD26 /// SNORD27 /// SNORD28 /// SNORD29 /// SNORD31 / Fold change (Aza/veh), C12orf56 (ProbeSet 11735607_a_at) / Fold change (ACY-1035/veh), C12orf56 (ProbeSet 11735607_a_at) / Fold change (Aza/veh), FGFR1OP (ProbeSet 11751329_s_at) / Fold change (ACY-1035/veh), FGFR1OP (ProbeSet 11751329_s_at) / Fold change (Aza/veh), VPS36 (ProbeSet 11739960_a_at) / Fold change (ACY-1035/veh), VPS36 (ProbeSet 11739960_a_at) / RFU SYPL1 (11715823_x_at) / Fold change /veh SYPL1 (11715823_x_at) / RFU IGFBP7 (11715501_s_at) / Fold change /veh IGFBP7 (11715501_s_at) / RFU REEP3 (11722064_at) / Fold change /veh REEP3 (11722064_at) / RFU IGLL1 (11728026_x_at) / Fold change /veh IGLL1 (11728026_x_at): dose or concentration left out as unconfirmed
Conditions: MV-4-11 cells, 48 hours

Nc1ccc(-c2cccs2)cc1NC(=O)c1ccc2c(c1)cc(C1CC1)n2CCN1CCOCC1 [ACY-1035]
Fold change /veh SAMD14 (11745864_x_at): 1.01
